Where a name gives a salt, the structure may show the parent alone.
Columns and labels:
[1] = test system: Xanthomonas strain Xcv 135; assay: Biofilm inhibition, crystal violet biofilm attachment assay on PVC microtiter wells; assay type: cell-based; settings: biofilm formation, starting OD600 0.55, 28° C., 6 hours, static
Procedure: Activity Testing. A standard crystal violet reporter assay is employed to assess the effect of compounds on the formation of biofilms. Among others, the following strains are tested:
Bacteria are allowed to form biofilms in a multi-well plate in the absence or presence of one or more compounds. Planktonic (or free growing) bacteria are then removed, wells washed vigorously, and crystal violet added. Crystal violet stains the remaining bacteria which, following ethanol solubilization, is quantitated by spectrophotometry (A540). Time-dependent and concentration-dependent analysis of each compound are performed.
Activity testing of imidazole library members on Xanthomonas. Biofilm formation on PVC microtiter wells was accomplished using Xanthomonas strains Xcv 135 (known to infect peppers and tomatoes) and Xcv 5 (known to infect tomatoes but not peppers) as models. The Starting Optical Density (OD at 600 nm) for biofilm attachment assay was 0.55, the temperature for this assay was 28° C., the duration of incubation was 6 hours under, and the assay was static.
Biofilm inhibition results are as follows for screens with Xcv 135. The Xcv 5 strain is tested in the same manner.

calcium channels = settings: known from literature (Bickmeyer, Toxicon 2005); cited from earlier work
[2] = test system: marine α-proteobacterium R. salexigens; settings: documented in literature (Yamada et al. 1997); cited from earlier work

SMILES: NC[C@@H]1Cc2nc(N)[nH]c2C[C@H]1CN (racemic) [Formula (II)(a)(±)]
- % Inhibition at 20 μM (vs. Xcv 135) [1]: 0%

SMILES: Nc1nc2c([nH]1)C[C@@H](CNC(=O)c1cc(Br)c[nH]1)[C@H](CNC(=O)c1cc(Br)c[nH]1)C2 (racemic) [Formula (II)(b)(v)(trans)(±)]
- % Inhibition at 20 μM (vs. Xcv 135) [1]: 0%

SMILES: Nc1nc2c([nH]1)C[C@@H](CNC(=O)c1cc(Br)c(Br)[nH]1)[C@H](CNC(=O)c1cc(Br)c(Br)[nH]1)C2 (racemic) [Formula (II)(b)(vi)(trans)(±)]
- % Inhibition at 20 μM (vs. Xcv 135) [1]: 71%

SMILES: Nc1nc([C@@H]2c3[nH]c(N)nc3C[C@H](CNC(=O)c3cc(Br)c[nH]3)[C@H]2CNC(=O)c2cc(Br)c(Br)[nH]2)c[nH]1 [bromoageliferin]
- activity of calcium channels (calcium channels): modulate the activity of calcium channels
- anti-biofouling properties: biofilm development in R. salexigens [2]: inhibiting biofilm development

SMILES: Nc1ncc(/C=C/CNC(=O)c2cc(Br)c(Br)[nH]2)[nH]1 [oroidin, oroidin hydrochloride]
- anti-biofouling properties: biofilm development in R. salexigens [2]: inhibiting biofilm development

— patent US8618149B2, “Inhibition of biofilms in plants with imidazole derivatives” (North Carolina State University, priority 2007, dated 2013)
